Experimental findings from ChEMBL document CHEMBL2401618 (Eur J Med Chem, 2013) are described below.

SMILES strings stand for the structures.

The nature of data set [1]: Safety index, ratio of IC50 for african green monkey Vero cells to IC50 for promastigote stage of Leishmania donovani LV9. The class given is toxicity, cell-based. To be noted: read-out: Ratio IC50.
Data set [2] can be described thus: Safety index, ratio of IC50 for african green monkey Vero cells to IC50 for bloodstream stage of Trypanosoma brucei brucei 93. Format: toxicity, cell-based. To be noted: read-out: Ratio IC50.
Data set [3] is described as follows: Safety index, ratio of IC50 for african green monkey Vero cells to IC50 for chloroquine-resistant Plasmodium falciparum FcB1/Columbia infected in human erythrocytes. The class given is toxicity, cell-based. The note with it: read-out: Ratio IC50.
The next data set concerns Vero. Kind of data set: Cytotoxicity against african green monkey Vero cells assessed as growth inhibition after 72 hrs by MTS assay. The class given is cell-based. The note with it: Chlorocebus sabaeus.
Another data set has as its system Leishmania donovani. The data set is described as follows: Leishmanicidal activity against promastigote stage of Leishmania donovani LV9 assessed as cell viability by MTT assay. Format: functional, organism-based.
Data set [4] relates to Plasmodium falciparum. The data set is described as follows: Antiplasmodial activity against chloroquine-resistant Plasmodium falciparum FcB1/Columbia infected in human erythrocytes assessed as parasite growth inhibition after 24 hrs by [3H]-hypoxanthine incorporation assay. The class given is functional, organism-based.
For data set [5], the system named is Plasmodium falciparum. The data set is described as follows: Antiplasmodial activity against chloroquine-resistant Plasmodium falciparum FcB1/Columbia infected in human erythrocytes assessed as parasite growth inhibition at 1 ug/ml after 24 hrs by [3H]-hypoxanthine incorporation assay relative to control. Format: functional. To be noted: read-out: GI.
The subject of data set [6] is Plasmodium falciparum. The data set is described as follows: Antiplasmodial activity against chloroquine-resistant Plasmodium falciparum FcB1/Columbia infected in human erythrocytes assessed as parasite growth inhibition at 10 ug/ml after 24 hrs by [3H]-hypoxanthine incorporation assay relative to control. The note with it: read-out: GI. Format: functional.
In data set [7] the test system is Trypanosoma brucei brucei. The data set is described as follows: Antitrypanosomal activity against bloodstream stage of Trypanosoma brucei brucei 93 assessed as parasite growth inhibition after 72 hrs by resazurin reduction assay. Format: functional, organism-based. The note with it: Trypanosoma brucei, 93, 72 h.
In data set [8] the test system is Trypanosoma brucei brucei. Kind of data set: Antitrypanosomal activity against bloodstream stage of Trypanosoma brucei brucei 93 assessed as parasite growth inhibition at 1 ug/ml after 72 hrs by resazurin reduction assay relative to control. Format: functional. To be noted: Trypanosoma brucei, 93, 72 h; read-out: GI.
In data set [9] the test system is Trypanosoma brucei brucei. The data set is described as follows: Antitrypanosomal activity against bloodstream stage of Trypanosoma brucei brucei 93 assessed as parasite growth inhibition at 10 ug/ml after 72 hrs by resazurin reduction assay relative to control. Format: functional. The note with it: Trypanosoma brucei, 93, 72 h; read-out: GI.
Data set [10] concerns Trypanosoma brucei brucei. The data set is described as follows: Antitrypanosomal activity against bloodstream stage of Trypanosoma brucei brucei 93 assessed as parasite growth inhibition at 50 ug/ml after 72 hrs by resazurin reduction assay relative to control. Format: functional. To be noted: Trypanosoma brucei, 93, 72 h; read-out: GI.
The subject of data set [11] is Plasmodium falciparum. Kind of data set: Antiplasmodial activity against chloroquine-resistant Plasmodium falciparum FcB1/Columbia infected in human erythrocytes assessed as parasite growth inhibition at 50 ug/ml after 24 hrs by [3H]-hypoxanthine incorporation assay relative to control. The class given is functional. To be noted: read-out: GI.
The nature of data set [12]: Cytotoxicity against african green monkey Vero cells assessed as growth inhibition at 10^-5 M after 72 hrs by MTS assay relative to control. Format: cell-based. To be noted: chlorocebus sabaeus, read-out: GI.

Regarding `CC(=O)Oc1cc(C(=O)C2=C(O)[C@]3(CC=C(C)C)C[C@H](CC=C(C)C)[C@@](C)(CCC=C(C)C)[C@](CC=C(C)C)(C2=O)C3=O)ccc1O`, the selectivity ratio was 0.8 in [1], 2.3 in data set [2] and 0.9 in [3]. Moreover, the IC50 worked out at 4.12 µM in the data set with Vero, 5.04 µM in the data set with Leishmania donovani, 4.36 µM in the data set on Plasmodium falciparum [4] and 1.78 µM in data set [7]. In addition, the inhibition of growth at 1 µg/mL in the data set with Plasmodium falciparum [5] turned out to be 9%; in data set [8], 47%. For the same compound, the inhibition of growth at 10 µg/mL was found to be 96.7% with Plasmodium falciparum [6] and 97.3% in data set [9]. The inhibition of growth at 50 µg/mL in [10] worked out at 95.5%; with Plasmodium falciparum [11], 99.1%.
Take `COc1ccc(C(=O)C2=C(O)[C@]3(CC=C(C)C)C[C@H](CC=C(C)C)[C@@](C)(CCC=C(C)C)[C@](CC=C(C)C)(C2=O)C3=O)cc1O` [14-O-METHYL-GUTTIFERONE A]: the selectivity ratio in [1] worked out at 1.2; in data set [2], 8.1; in [3] it was 2.6. For the same compound, the 50% inhibitory concentration (IC50) was found to be 11.5 µM in the data set with Vero, 9.4 µM in the data set with Leishmania donovani, 4.46 µM with Plasmodium falciparum [4] and 1.42 µM in data set [7]. The inhibition of growth at 1 µg/mL was found to be 10.7% with Plasmodium falciparum [5] and 85.3% in [8]. The results for the inhibition of growth at 10 µg/mL (with Plasmodium falciparum [6]; in data set [9]) were 75.2% and 96.3%, respectively. The results for the inhibition of growth at 50 µg/mL (in data set [10]; in the data set with Plasmodium falciparum [11]) were 92.8% and 98.9%, respectively.
Turning to `CC(C)=CCC[C@]1(C)[C@@H](CC=C(C)C)C[C@]2(CC=C(C)C)C(=O)[C@@]1(CC=C(C)C)C(=O)C(C(=O)c1ccc(OC(=O)C(C)(C)C)c(OC(=O)C(C)(C)C)c1)=C2O`, the selectivity ratio in [1] was < 1; in data set [2], 11.5. Besides, the inhibition at 72 h, 10 µM in data set [12] is 13%. The concentration for half-maximal inhibition (IC50) was 100 µM with Vero, > 100 µM in the data set on Leishmania donovani and 8.66 µM in data set [7]. In addition, the inhibition of growth at 1 µg/mL is 4.48% with Plasmodium falciparum [5] and 42.9% in data set [8]. Also, the figures for the inhibition of growth at 10 µg/mL (in the data set on Plasmodium falciparum [6]; in [9]) were 27.2% and 91.2%, respectively. The results for the inhibition of growth at 50 µg/mL (in data set [10]; in the data set on Plasmodium falciparum [11]) were 96.4% and 0.5%, respectively.
Take `CCCC(=O)Oc1ccc(C(=O)C2=C(O)[C@]3(CC=C(C)C)C[C@H](CC=C(C)C)[C@@](C)(CCC=C(C)C)[C@](CC=C(C)C)(C2=O)C3=O)cc1OC(=O)CCC`: the figures for the selectivity ratio in data set [1], in data set [2] and in data set [3] were 0.6, 3 and 1.6, respectively. Further, the half-inhibitory concentration (IC50) in the data set on Vero amounted to 7.9 µM; with Leishmania donovani, 13.3 µM; in the data set on Plasmodium falciparum [4], 5.06 µM; in data set [7] it was 2.65 µM. The inhibition of growth at 1 µg/mL in the data set with Plasmodium falciparum [5] was -0.82%; in data set [8], 35%. Besides, the inhibition of growth at 10 µg/mL in the data set on Plasmodium falciparum [6] was determined as 96.5%; in data set [9], 96.2%. The inhibition of growth at 50 µg/mL in data set [10] came out at 94.9%; with Plasmodium falciparum [11], 99.7%.
On to `CC(=O)Oc1ccc(C(=O)C2=C(O)[C@]3(CC=C(C)C)C[C@H](CC=C(C)C)[C@@](C)(CCC=C(C)C)[C@](CC=C(C)C)(C2=O)C3=O)cc1OC(C)=O`, for which the selectivity ratio in data set [2] was found to be 1.3; in data set [3], 1.1. Besides, the figures for the concentration for half-maximal inhibition (IC50) (with Vero; with Plasmodium falciparum [4]; in [7]) were 3.77 µM, 3.63 µM and 2.95 µM, respectively. Further, the inhibition of growth at 1 µg/mL is 14.9% with Plasmodium falciparum [5] and 38.5% in [8]. The inhibition of growth at 10 µg/mL in the data set with Plasmodium falciparum [6] was 97.5%; in data set [9], 97.2%. In addition, the inhibition of growth at 50 µg/mL in [10] stood at 93.3%; in the data set with Plasmodium falciparum [11] it was 99.7%.
For the compound `CC(C)=CCC[C@]1(C)[C@@H](CC=C(C)C)C[C@]2(CC=C(C)C)C(=O)[C@@]1(CC=C(C)C)C(=O)C(C(=O)c1ccc(OCCC3OCCO3)c(OCCC3OCCO3)c1)=C2O`, the selectivity ratio amounted to 1.2 in data set [1], 22.8 in data set [2] and 20.8 in data set [3]. Further, the inhibition at 72 h, 10 µM in data set [12] stood at 29%. The IC50 in the data set with Vero amounted to 41.6 µM; in the data set with Leishmania donovani, 34.3 µM; in the data set on Plasmodium falciparum [4] it was 2 µM; in data set [7] it was 1.83 µM. For the same compound, the inhibition of growth at 1 µg/mL stood at 17.6% in the data set on Plasmodium falciparum [5] and 44.8% in data set [8]. Also, the values for the inhibition of growth at 10 µg/mL (with Plasmodium falciparum [6]; in [9]) were 94.1% and 96.7%, respectively. The inhibition of growth at 50 µg/mL in data set [10] stood at 95%; in the data set with Plasmodium falciparum [11] it was 99.6%.
